According to the supplement of paper PMC8612539:
≈ marks a conversion by molar mass, not a printed value.

Tested on: Escherichia coli
Assay: minimum inhibitory concentration (MIC)
Method: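 Broth microdilution MIC (Sensititre BOPO7F bovine plate, CLSI methods) of 19 antimicrobials against field isolates of P. multocida, M. haemolytica, H. somni (deep nasopharyngeal swabs) and E. coli, Enterococcus spp. (rectal swabs) from weaned dairy heifers. Incubation 16-24 h at 35 C. MIC is the lowest concentration preventing visible growth. Values with <= or > lie at the tested range limits. Trimethoprim-sulfamethoxazole is given as the trimethoprim component of a 1:19 mixture.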

CN(C)[C@@H]1C(O)=C(C(N)=O)C(=O)[C@@]2(O)C(O)=C3C(=O)c4c(O)cccc4[C@@](C)(O)[C@H]3C[C@@H]12 [Tetracycline]
Conditions | minimum inhibitory concentration [µg/mL]
isolate (source animal id): 8 | > 8
isolate (source animal id): 9 | > 8
isolate (source animal id): 10 | > 8
isolate (source animal id): 11 | 1 (≈ 2.25 µM)
isolate (source animal id): 12 | > 8
isolate (source animal id): 13 | > 8
isolate (source animal id): 14 | > 8
isolate (source animal id): 15 | > 8
isolate (source animal id): 16 | > 8
isolate (source animal id): 98 | > 8
isolate (source animal id): 99 | 2 (≈ 4.5 µM)
isolate (source animal id): 100 | > 8
isolate (source animal id): 101 | > 8
isolate (source animal id): 102 | > 8
isolate (source animal id): 103 | > 8
isolate (source animal id): 104 | > 8
isolate (source animal id): 105 | > 8
isolate (source animal id): 106 | > 8
isolate (source animal id): 107 | > 8
isolate (source animal id): 108 | > 8
isolate (source animal id): 109 | > 8
isolate (source animal id): 110 | > 8
isolate (source animal id): 111 | > 8
isolate (source animal id): 112 | > 8
isolate (source animal id): 113 | > 8
isolate (source animal id): 114 | > 8
isolate (source animal id): 115 | > 8
isolate (source animal id): 116 | > 8
isolate (source animal id): 117 | > 8
isolate (source animal id): 118 | > 8
isolate (source animal id): 119 | > 8
isolate (source animal id): 120 | > 8
isolate (source animal id): 121 | > 8
isolate (source animal id): 122 | > 8
isolate (source animal id): 123 | > 8
isolate (source animal id): 124 | > 8
isolate (source animal id): 125 | > 8
isolate (source animal id): 126 | > 8
isolate (source animal id): 127 | > 8
isolate (source animal id): 128 | > 8
isolate (source animal id): 129 | > 8
isolate (source animal id): 130 | > 8
isolate (source animal id): 131 | > 8
isolate (source animal id): 132 | > 8
isolate (source animal id): 133 | > 8
isolate (source animal id): 134 | > 8
isolate (source animal id): 135 | 2 (≈ 4.5 µM)
isolate (source animal id): 136 | > 8
isolate (source animal id): 137 | > 8
isolate (source animal id): 138 | > 8
isolate (source animal id): 139 | > 8
isolate (source animal id): 140 | 1 (≈ 2.25 µM)
isolate (source animal id): 141 | > 8
isolate (source animal id): 142 | > 8
isolate (source animal id): 143 | > 8
isolate (source animal id): 144 | > 8
isolate (source animal id): 145 | > 8
isolate (source animal id): 146 | > 8
isolate (source animal id): 147 | > 8
isolate (source animal id): 148 | > 8
isolate (source animal id): 149 | > 8
isolate (source animal id): 150 | > 8
isolate (source animal id): 151 | > 8
isolate (source animal id): 152 | > 8
isolate (source animal id): 153 | > 8
isolate (source animal id): 154 | > 8
isolate (source animal id): 155 | > 8
isolate (source animal id): 156 | > 8
isolate (source animal id): 157 | > 8
isolate (source animal id): 158 | > 8
isolate (source animal id): 159 | > 8
isolate (source animal id): 160 | > 8
isolate (source animal id): 161 | > 8
isolate (source animal id): 162 | > 8
isolate (source animal id): 163 | > 8
isolate (source animal id): 164 | > 8
isolate (source animal id): 165 | > 8
isolate (source animal id): 166 | > 8
isolate (source animal id): 167 | > 8
isolate (source animal id): 168 | 1 (≈ 2.25 µM)
isolate (source animal id): 169 | 1 (≈ 2.25 µM)
isolate (source animal id): 170 | > 8
isolate (source animal id): 171 | 1 (≈ 2.25 µM)
isolate (source animal id): 172 | 1 (≈ 2.25 µM)
isolate (source animal id): 173 | > 8
isolate (source animal id): 174 | > 8
isolate (source animal id): 175 | > 8
isolate (source animal id): 176 | > 8
isolate (source animal id): 177 | > 8
isolate (source animal id): 178 | > 8
isolate (source animal id): 179 | 1 (≈ 2.25 µM)
isolate (source animal id): 180 | > 8
isolate (source animal id): 181 | > 8
isolate (source animal id): 182 | > 8
isolate (source animal id): 183 | > 8
isolate (source animal id): 184 | > 8
isolate (source animal id): 185 | > 8
isolate (source animal id): 186 | 1 (≈ 2.25 µM)
isolate (source animal id): 187 | > 8
isolate (source animal id): 188 | > 8

CS(=O)(=O)c1ccc([C@@H](O)[C@@H](CF)NC(=O)C(Cl)Cl)cc1 [Florfenicol]
Conditions | minimum inhibitory concentration [µg/mL]
isolate (source animal id): 8 | 4 (≈ 11.2 µM)
isolate (source animal id): 9 | > 8
isolate (source animal id): 10 | 4 (≈ 11.2 µM)
isolate (source animal id): 11 | 2 (≈ 5.58 µM)
isolate (source animal id): 12 | > 8
isolate (source animal id): 13 | 8 (≈ 22.3 µM)
isolate (source animal id): 14 | > 8
isolate (source animal id): 15 | > 8
isolate (source animal id): 16 | > 8
isolate (source animal id): 98 | 2 (≈ 5.58 µM)
isolate (source animal id): 99 | 4 (≈ 11.2 µM)
isolate (source animal id): 100 | > 8
isolate (source animal id): 101 | > 8
isolate (source animal id): 102 | > 8
isolate (source animal id): 103 | 4 (≈ 11.2 µM)
isolate (source animal id): 104 | > 8
isolate (source animal id): 105 | > 8
isolate (source animal id): 106 | > 8
isolate (source animal id): 107 | > 8
isolate (source animal id): 108 | > 8
isolate (source animal id): 109 | > 8
isolate (source animal id): 110 | > 8
isolate (source animal id): 111 | 4 (≈ 11.2 µM)
isolate (source animal id): 112 | > 8
isolate (source animal id): 113 | > 8
isolate (source animal id): 114 | 4 (≈ 11.2 µM)
isolate (source animal id): 115 | > 8
isolate (source animal id): 116 | > 8
isolate (source animal id): 117 | > 8
isolate (source animal id): 118 | > 8
isolate (source animal id): 119 | > 8
isolate (source animal id): 120 | > 8
isolate (source animal id): 121 | > 8
isolate (source animal id): 122 | > 8
isolate (source animal id): 123 | > 8
isolate (source animal id): 124 | > 8
isolate (source animal id): 125 | > 8
isolate (source animal id): 126 | > 8
isolate (source animal id): 127 | > 8
isolate (source animal id): 128 | > 8
isolate (source animal id): 129 | > 8
isolate (source animal id): 130 | > 8
isolate (source animal id): 131 | > 8
isolate (source animal id): 132 | > 8
isolate (source animal id): 133 | > 8
isolate (source animal id): 134 | > 8
isolate (source animal id): 135 | 8 (≈ 22.3 µM)
isolate (source animal id): 136 | > 8
isolate (source animal id): 137 | > 8
isolate (source animal id): 138 | > 8
isolate (source animal id): 139 | > 8
isolate (source animal id): 140 | 4 (≈ 11.2 µM)
isolate (source animal id): 141 | > 8
isolate (source animal id): 142 | > 8
isolate (source animal id): 143 | > 8
isolate (source animal id): 144 | > 8
isolate (source animal id): 145 | > 8
isolate (source animal id): 146 | > 8
isolate (source animal id): 147 | > 8
isolate (source animal id): 148 | > 8
isolate (source animal id): 149 | 4 (≈ 11.2 µM)
isolate (source animal id): 150 | > 8
isolate (source animal id): 151 | > 8
isolate (source animal id): 152 | > 8
isolate (source animal id): 153 | > 8
isolate (source animal id): 154 | > 8
isolate (source animal id): 155 | > 8
isolate (source animal id): 156 | > 8
isolate (source animal id): 157 | > 8
isolate (source animal id): 158 | > 8
isolate (source animal id): 159 | > 8
isolate (source animal id): 160 | > 8
isolate (source animal id): 161 | > 8
isolate (source animal id): 162 | > 8
isolate (source animal id): 163 | > 8
isolate (source animal id): 164 | > 8
isolate (source animal id): 165 | > 8
isolate (source animal id): 166 | > 8
isolate (source animal id): 167 | 8 (≈ 22.3 µM)
isolate (source animal id): 168 | 2 (≈ 5.58 µM)
isolate (source animal id): 169 | 8 (≈ 22.3 µM)
isolate (source animal id): 170 | 4 (≈ 11.2 µM)
isolate (source animal id): 171 | 4 (≈ 11.2 µM)
isolate (source animal id): 172 | 2 (≈ 5.58 µM)
isolate (source animal id): 173 | > 8
isolate (source animal id): 174 | 4 (≈ 11.2 µM)
isolate (source animal id): 175 | 8 (≈ 22.3 µM)
isolate (source animal id): 176 | 4 (≈ 11.2 µM)
isolate (source animal id): 177 | > 8
isolate (source animal id): 178 | > 8
isolate (source animal id): 179 | 4 (≈ 11.2 µM)
isolate (source animal id): 180 | 4 (≈ 11.2 µM)
isolate (source animal id): 181 | > 8
isolate (source animal id): 182 | 4 (≈ 11.2 µM)
isolate (source animal id): 183 | > 8
isolate (source animal id): 184 | 4 (≈ 11.2 µM)
isolate (source animal id): 185 | > 8
isolate (source animal id): 186 | 4 (≈ 11.2 µM)
isolate (source animal id): 187 | > 8
isolate (source animal id): 188 | > 8
